Measurements taken from ChEMBL document CHEMBL1201862, “PubChem BioAssay data set” (2004).
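Protocol summary: plate cells (96-well), add compound at 5 concentrations, incubate 48 h, interpolate endpoints linearly. GI50 marks 50% less growth.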 Active and inactive are the calls of the source. No stated cut-off is given here; in the data, active = GI50 up to about 1.1 µM and inactive = higher.

Tests used:
Assay in all cases: NCI tumour cell line growth inhibition, 48 h
HCT-15 = tested on: HCT-15
MCF7 = tested on: MCF7
NCI-H226 = tested on: NCI-H226
ACHN = tested on: ACHN
BT-549 = tested on: BT-549
SW-620 = tested on: SW-620
MOLT-4 = tested on: MOLT-4
HOP-62 = tested on: HOP-62
NCI-H460 = tested on: NCI-H460
M14 = tested on: M14
COLO 205 = tested on: COLO 205
U-251 = tested on: U-251
NCI/ADR-RES = tested on: NCI/ADR-RES
PC-3 = tested on: PC-3
UACC-257 = tested on: UACC-257
SK-OV-3 = tested on: SK-OV-3
OVCAR-4 = tested on: OVCAR-4
DU-145 = tested on: DU-145
SK-MEL-5 = tested on: SK-MEL-5
MDA-MB-435 = tested on: MDA-MB-435
SNB-75 = tested on: SNB-75
LOX IMVI = tested on: LOX IMVI
RXF 393 = tested on: RXF 393
HCC 2998 = tested on: HCC 2998
HCT-116 = tested on: HCT-116
MDA-MB-231 = tested on: MDA-MB-231
RPMI-8226 = tested on: RPMI-8226
SK-MEL-28 = tested on: SK-MEL-28
786-0 = tested on: 786-0
KM12 = tested on: KM12
SF-295 = tested on: SF-295
A498 = tested on: A498
SK-MEL-2 = tested on: SK-MEL-2
CCRF-CEM = tested on: CCRF-CEM
OVCAR-3 = tested on: OVCAR-3
HOP-92 = tested on: HOP-92
CAKI-1 = tested on: CAKI-1
SF-268 = tested on: SF-268
OVCAR-5 = tested on: OVCAR-5
UACC-62 = tested on: UACC-62
T47D = tested on: T47D
SNB-19 = tested on: SNB-19
EKVX = tested on: EKVX
TK-10 = tested on: TK-10
UO-31 = tested on: UO-31
K562 = tested on: K562
A549 = tested on: A549
NCI-H23 = tested on: NCI-H23
HL-60 = tested on: HL-60
Hs-578T = tested on: Hs-578T
Malme-3M = tested on: Malme-3M
MDA-N = tested on: MDA-N
SF-539 = tested on: SF-539
OVCAR-8 = tested on: OVCAR-8
SR = tested on: SR
IGROV-1 = tested on: IGROV-1
NCI-H522 = tested on: NCI-H522
SN12C = tested on: SN12C
HT-29 = tested on: HT-29

**Q.** For `CN(C)C1(N(C)C)Oc2c(c(=O)n(C)c(=O)n2C)C(c2ccccc2)C1(F)F` (stereo unspecified), which GI50 (HCT-15) is on record?
**A.** > 100 µM

**Q.** And the GI50 (MCF7)?
**A.** > 100 µM (inactive)

**Q.** What about the GI50 (NCI-H226) of the same molecule?
**A.** > 100 µM (inactive)

**Q.** What about the GI50 (ACHN) of the same molecule?
**A.** > 100 µM (inactive)

**Q.** And the GI50 (BT-549)?
**A.** > 100 µM (inactive)

**Q.** What about the GI50 (SW-620) of the same molecule?
**A.** > 100 µM (inactive)

**Q.** And the GI50 (MOLT-4)?
**A.** > 100 µM (inactive)

**Q.** And the GI50 (HOP-62)?
**A.** > 100 µM (inactive)

**Q.** What about the GI50 (NCI-H460) of the same molecule?
**A.** > 100 µM (inactive)

**Q.** And the GI50 (M14)?
**A.** > 100 µM (inactive)

**Q.** What about the GI50 (COLO 205) of the same molecule?
**A.** > 100 µM (inactive)

**Q.** And the GI50 (U-251)?
**A.** > 100 µM (inactive)

**Q.** What about the GI50 (NCI/ADR-RES) of the same molecule?
**A.** > 100 µM (inactive)

**Q.** What about the GI50 (PC-3) of the same molecule?
**A.** > 100 µM (inactive)

**Q.** What about the GI50 (UACC-257) of the same molecule?
**A.** > 100 µM (inactive)

**Q.** What about the GI50 (SK-OV-3) of the same molecule?
**A.** > 100 µM (inactive)

**Q.** What about the GI50 (OVCAR-4) of the same molecule?
**A.** > 100 µM (inactive)

**Q.** And the GI50 (DU-145)?
**A.** > 100 µM (inactive)

**Q.** And the GI50 (SK-MEL-5)?
**A.** > 100 µM (inactive)

**Q.** What about the GI50 (MDA-MB-435) of the same molecule?
**A.** > 100 µM (inactive)

**Q.** And the GI50 (SNB-75)?
**A.** > 100 µM (inactive)

**Q.** And the GI50 (LOX IMVI)?
**A.** > 100 µM (inactive)

**Q.** And the GI50 (RXF 393)?
**A.** > 100 µM (inactive)

**Q.** And the GI50 (HCC 2998)?
**A.** > 100 µM (inactive)

**Q.** And the GI50 (HCT-116)?
**A.** > 100 µM (inactive)

**Q.** What about the GI50 (MDA-MB-231) of the same molecule?
**A.** > 100 µM (inactive)

**Q.** And the GI50 (RPMI-8226)?
**A.** > 100 µM (inactive)

**Q.** What about the GI50 (SK-MEL-28) of the same molecule?
**A.** > 100 µM (inactive)

**Q.** And the GI50 (786-0)?
**A.** > 100 µM (inactive)

**Q.** And the GI50 (KM12)?
**A.** > 100 µM (inactive)

**Q.** What about the GI50 (SF-295) of the same molecule?
**A.** > 100 µM (inactive)

**Q.** And the GI50 (A498)?
**A.** > 100 µM (inactive)

**Q.** What about the GI50 (SK-MEL-2) of the same molecule?
**A.** > 100 µM (inactive)

**Q.** What about the GI50 (CCRF-CEM) of the same molecule?
**A.** > 100 µM (inactive)

**Q.** What about the GI50 (OVCAR-3) of the same molecule?
**A.** > 100 µM (inactive)

**Q.** And the GI50 (HOP-92)?
**A.** > 100 µM (inactive)

**Q.** And the GI50 (CAKI-1)?
**A.** > 100 µM (inactive)

**Q.** And the GI50 (SF-268)?
**A.** > 100 µM (inactive)

**Q.** And the GI50 (OVCAR-5)?
**A.** > 100 µM (inactive)

**Q.** And the GI50 (UACC-62)?
**A.** > 100 µM (inactive)

**Q.** And the GI50 (T47D)?
**A.** > 100 µM (inactive)

**Q.** And the GI50 (SNB-19)?
**A.** > 100 µM (inactive)

**Q.** What about the GI50 (EKVX) of the same molecule?
**A.** > 100 µM (inactive)

**Q.** And the GI50 (TK-10)?
**A.** > 100 µM (inactive)

**Q.** And the GI50 (UO-31)?
**A.** > 100 µM (inactive)

**Q.** What about the GI50 (K562) of the same molecule?
**A.** > 100 µM (inactive)

**Q.** And the GI50 (A549)?
**A.** > 100 µM (inactive)

**Q.** And the GI50 (NCI-H23)?
**A.** > 100 µM (inactive)

**Q.** With `O=C1Oc2cc3c(c4cccc1c24)O[C@H](c1ccccc1)[C@@H](c1ccccc1)[C@@H]3c1ccc(Cl)cc1` as the molecule, how does the GI50 (HL-60) read?
**A.** > 100 µM (inactive)

**Q.** And the GI50 (HCT-15)?
**A.** > 100 µM

**Q.** And the GI50 (MCF7)?
**A.** > 100 µM (inactive)

**Q.** What about the GI50 (NCI-H226) of the same molecule?
**A.** 76 µM (inactive)

**Q.** And the GI50 (Hs-578T)?
**A.** 88.7 µM (inactive)

**Q.** And the GI50 (ACHN)?
**A.** 26.7 µM (inactive)

**Q.** What about the GI50 (SW-620) of the same molecule?
**A.** > 100 µM (inactive)

**Q.** And the GI50 (MOLT-4)?
**A.** 19.6 µM (inactive)

**Q.** What about the GI50 (HOP-62) of the same molecule?
**A.** 18.2 µM (inactive)

**Q.** What about the GI50 (NCI-H460) of the same molecule?
**A.** > 100 µM (inactive)

**Q.** What about the GI50 (M14) of the same molecule?
**A.** 40.1 µM (inactive)

**Q.** And the GI50 (Malme-3M)?
**A.** 37.3 µM (inactive)

**Q.** And the GI50 (COLO 205)?
**A.** > 100 µM (inactive)

**Q.** What about the GI50 (U-251) of the same molecule?
**A.** 19.6 µM (inactive)

**Q.** What about the GI50 (NCI/ADR-RES) of the same molecule?
**A.** > 100 µM (inactive)

**Q.** What about the GI50 (MDA-N) of the same molecule?
**A.** > 100 µM (inactive)

**Q.** And the GI50 (PC-3)?
**A.** > 100 µM (inactive)

**Q.** And the GI50 (SF-539)?
**A.** 33.7 µM (inactive)

**Q.** What about the GI50 (UACC-257) of the same molecule?
**A.** > 100 µM (inactive)

**Q.** And the GI50 (SK-OV-3)?
**A.** 45.2 µM (inactive)

**Q.** And the GI50 (OVCAR-4)?
**A.** 82 µM (inactive)

**Q.** And the GI50 (DU-145)?
**A.** > 100 µM (inactive)

**Q.** And the GI50 (SK-MEL-5)?
**A.** > 100 µM (inactive)

**Q.** What about the GI50 (MDA-MB-435) of the same molecule?
**A.** 76.7 µM (inactive)

**Q.** And the GI50 (LOX IMVI)?
**A.** 68.4 µM (inactive)

**Q.** What about the GI50 (OVCAR-8) of the same molecule?
**A.** 16.2 µM (inactive)

**Q.** And the GI50 (RXF 393)?
**A.** 17.4 µM (inactive)

**Q.** And the GI50 (HCC 2998)?
**A.** > 100 µM (inactive)

**Q.** What about the GI50 (HCT-116) of the same molecule?
**A.** 31.8 µM (inactive)

**Q.** What about the GI50 (MDA-MB-231) of the same molecule?
**A.** 18.3 µM (inactive)

**Q.** And the GI50 (SR)?
**A.** 18.8 µM (inactive)

**Q.** What about the GI50 (RPMI-8226) of the same molecule?
**A.** 58.1 µM (inactive)

**Q.** And the GI50 (IGROV-1)?
**A.** 22.8 µM (inactive)

**Q.** What about the GI50 (SK-MEL-28) of the same molecule?
**A.** > 100 µM (inactive)

**Q.** And the GI50 (786-0)?
**A.** 17.6 µM (inactive)

**Q.** What about the GI50 (KM12) of the same molecule?
**A.** > 100 µM (inactive)

**Q.** What about the GI50 (SF-295) of the same molecule?
**A.** 42.7 µM (inactive)

**Q.** What about the GI50 (CCRF-CEM) of the same molecule?
**A.** 49 µM (inactive)

**Q.** And the GI50 (OVCAR-3)?
**A.** 36.8 µM (inactive)

**Q.** And the GI50 (HOP-92)?
**A.** 28.8 µM (inactive)

**Q.** And the GI50 (CAKI-1)?
**A.** > 100 µM (inactive)

**Q.** And the GI50 (SF-268)?
**A.** 31.9 µM (inactive)

**Q.** What about the GI50 (OVCAR-5) of the same molecule?
**A.** > 100 µM (inactive)

**Q.** And the GI50 (UACC-62)?
**A.** 19.3 µM (inactive)

**Q.** And the GI50 (T47D)?
**A.** 58.6 µM (inactive)

**Q.** And the GI50 (SNB-19)?
**A.** 29.4 µM (inactive)

**Q.** And the GI50 (NCI-H522)?
**A.** 38 µM (inactive)

**Q.** What about the GI50 (EKVX) of the same molecule?
**A.** > 100 µM (inactive)

**Q.** And the GI50 (SN12C)?
**A.** 79.4 µM (inactive)

**Q.** What about the GI50 (TK-10) of the same molecule?
**A.** 39.3 µM (inactive)

**Q.** What about the GI50 (K562) of the same molecule?
**A.** 46.1 µM (inactive)

**Q.** What about the GI50 (NCI-H23) of the same molecule?
**A.** 34 µM (inactive)

**Q.** What about the GI50 (HT-29) of the same molecule?
**A.** > 100 µM (inactive)
